Several values for one entry are separate records, joined by “and”; a condition that tells them apart may be missing. Equal values may be shown once.
What was measured:
[1] = system: mouse heart cardiac tissue; assay: Optical action potential recording in Langendorff-perfused mouse heart (Tyrode's solution); conditions: mean ± SD
Protocol: (§1) The dye testing experiments were performed on typical model animals: mice (n=6), rat (n=11), guinea pig (n=6), pig (n=13). All experimental protocols conformed to the Guide for the Care and Use of Laboratory Animals and were approved by the Committee for the Humane Use of Animal of the SUNY Upstate Medical University. Mice (C57BL/6, 20-25 g) were injected with ketamine (200 mg/kg IP), rats (Sprague Dawley, 300-400 g female) and guinea pigs were injected with heparin (550 U/100 g), and euthanized by sodium phentobarbital (1 ml/100 g for rats and 0.75 ml/100 g for guinea pigs). The heart was then immediately excised and placed in ice-cold cardioplegia solution (CPS) composed of (in mmol/l) 280 Glucose, 13.44 KCl, 12.6 NaHCO3, 34 Mannitol. […] Perfusion and superfusion temperatures were continuously monitored and kept at 36±1° C. by using two sets of glass heating coils and heated-refrigerated circulators. […]
(§2) After a 20-30 min stabilization period during which the perfusion flow and ECG was monitored, the excitation-contraction uncoupler diacetyl-monoxime (DAM) was added to the perfusate (15 mmol/l) to stop contractions of cardiac tissue. […]

pig cardiac tissue = assay: Dye washout dynamics of OP amplitude in pig cardiac tissue; conditions: mean ± SD
Protocol: as §1
(§3) The acquired images were offline processed to improve their quality. The background autofluorescence (endogenous fluorescence recorded under the same conditions before dye injection) was subtracted from each frame to obtain the voltage-dependent optical signal. To allow temporal alignment and subsequent averaging of successive paced action potentials, the trigger for the pacing stimulus was recorded as a single pixel in the movie frames. […]

[2] = system: guinea pig heart cardiac tissue; assay: Dye washout dynamics of OP amplitude in guinea pig heart; conditions: mean ± SD
Protocol: as §1, §3

[3] = system: pig cardiac tissue (right free ventricular wall); assay: Optical action potential recording in Tyrode-perfused pig right ventricular wall preparation; conditions: for ΔF/F (relative fluorescence, maximal fluorescence efficacy): pig tissue, Tyrode-perfused, epifluorescence; for ΔF/F (relative fluorescence): pig, transillumination mode, thick cardiac tissue ~10 mm
Protocol: The dye testing experiments were performed on typical model animals: mice (n=6), rat (n=11), guinea pig (n=6), pig (n=13). All experimental protocols conformed to the Guide for the Care and Use of Laboratory Animals and were approved by the Committee for the Humane Use of Animal of the SUNY Upstate Medical University. Mice (C57BL/6, 20-25 g) were injected with ketamine (200 mg/kg IP), rats (Sprague Dawley, 300-400 g female) and guinea pigs were injected with heparin (550 U/100 g), and euthanized by sodium phentobarbital (1 ml/100 g for rats and 0.75 ml/100 g for guinea pigs). The heart was then immediately excised and placed in ice-cold cardioplegia solution (CPS) composed of (in mmol/l) 280 Glucose, 13.44 KCl, 12.6 NaHCO3, 34 Mannitol. After removal of extraneous tissues, the aorta was cannulated and Langendorff perfusion was started with a standard oxygenated Tyrode's solution (composed of (in mmol/l) 130 NaCl, 24 NaHCO3, 1.2 NaH2PO4, 1.0 MgCl2, 5.6 Glucose, 4.0 KCl, 1.8 CaCl2; buffered to a pH of 7.4) at 80 mm Hg and 36° C. Young pigs (15-20 kg,) were heparinized (500 IU, IV) and subsequently anesthetized with sodium phentobarbital (35 mg/kg IV). The heart was rapidly removed and Langendorff-perfused with cold (4° C.) CPS. The right free ventricular wall was quickly excised, and the right coronary artery was cannulated. Non-perfused tissue was removed, leaving a preparation of typically 5×5 cm and a thickness of 8 mm. The preparation was stretched on a plastic frame and perfused with a standard oxygenated Tyrode's solution at 80 mm Hg and 36° C. Whole cannulated heart (mouse, rat or guinea pig) or stretched pig tissue was put into special transparent chamber and superfused with the same solution at a rate of 30-40 ml/min. Perfusion and superfusion temperatures were continuously monitored and kept at 36±1° C. by using two sets of glass heating coils and heated-refrigerated circulators. Electrodes were sutured to whole hearts or inserted into pig tissue to monitor ECG. All preparations were continuously paced at the frequency 6.7 Hz, 5 Hz, 3.3 Hz and 2 Hz for mouse, rat, guinea pig, and pig, respectively.
After a 20-30 min stabilization period during which the perfusion flow and ECG was monitored, the excitation-contraction uncoupler diacetyl-monoxime (DAM) was added to the perfusate (15 mmol/l) to stop contractions of cardiac tissue. After a 20 minute equilibration, the preparation was stained by injecting voltage-sensitive dye solution into the perfusion flow (a bolus injection near cannula).
Solid dyes were dissolved in DMSO to make 10-50 mM stock solution that was kept frozen. […]

[4] = system: mouse heart cardiac tissue; assay: Dye washout dynamics of OP amplitude in mouse heart; conditions: mean ± SD
Protocol: as §1, §3

rat heart cardiac tissue [5] = assay: Dye washout dynamics of OP amplitude in rat heart; conditions: mean ± SD
Protocol: as §1, §3

various cardiac tissues = assay: Dye performance in various cardiac tissues compared with di-4-ANEPPS; conditions: in any of the tested species
Protocol: as §1, with “Mannitol. After removal of extraneous tissues, the aorta was cannulated and Langendorff perfusion was started with a standard oxygenated Tyrode's solution (composed of (in mmol/l) 130 NaCl, 24 NaHCO3, 1.2 NaH2PO4, 1.0 MgCl2, 5.6 Glucose, 4.0 KCl, 1.8 CaCl2; buffered to a pH of 7.4) at 80 mm Hg and 36° C. Young pigs (15-20 kg,) were heparinized (500 IU, IV) and subsequently anesthetized with sodium phentobarbital (35 mg/kg IV).” for “Mannitol.”

rat heart cardiac tissue [6] = assay: Optical action potential recording in Langendorff-perfused rat heart (Tyrode's solution); conditions: mean ± SD
Protocol: as §1, §2

[7] = system: guinea pig heart cardiac tissue; assay: Optical action potential recording in Langendorff-perfused guinea pig heart (Tyrode's solution); conditions: mean ± SD
Protocol: as §1, §2

blood-perfused pig heart = assay: Optical mapping of blood-perfused Langendorff pig heart; conditions: for ΔF/F (relative fluorescence): blood perfusion
Protocol: Blood-perfused Langendorff preparation of pig heart was implemented. Briefly, approximately 1.5 liters of modified Tyrode's solution (37° C., composition in mmol/L: Na^+, 157; K^+, 4.7; Ca^2+, 1.5; Mg^2+, 0.7, H2PO4^−0.5, Cl^−137.6, HCO3^−28.0, glucose 11.0, dextran 4% and insulin 10 U) was infused in an external jugular vein, and blood-Tyrode's mixture was collected at equal rate from a carotid artery. The heart was perfused with blood-Tyrode mixture in a Langendorff apparatus. The blood-Tyrode mixture will be oxygenated (CO2 5%/02 95%), heated (37° C.) and filtered using a Liliput hollow fiber oxygenator (COBE Cardiovascular, Arvada, Co). Collector tubes were inserted into the right and left ventricles to collect all the blood coming out of the coronary sinus and Thebesian veins. Thereafter, the heart was “sealed” to ensure that all the outflow of perfused blood is collected for recirculation. The heart was placed in a warm bath with heated water-jacketed transparent glass wall and was superfused with an oxygenated, heated Tyrode solution. After a 20-30 min stabilization verified by a vigorous contraction and normal sinus rhythm, the excitation-contraction uncoupler diacetyl-monoxime (DAM) was added to the perfusate (15 mmol/l) to stop contractions. ECG was monitored throughout the experiment to ensure stable capture of the ventricles by the pacing electrode. […]
Blood-perfused pig heart imaging was done in a similar way. Briefly, the dye was excited with a 400-watt tungsten-halogen lamp (excitation filter, 650+/−20 nm) and the fluorescence was collected above 715 nm using a Computar objective lens (HG1208FCS_HSP, F0.8, focal length 12 mm,) and externally cooled CCD camera (Dalsa CA-D1-0128T, Ontario, Canada) at the frame rate of 400-800 fps and 12-bit resolution.
The acquired images were offline processed to improve their quality. The background autofluorescence (endogenous fluorescence recorded under the same conditions before dye injection) was subtracted from each frame to obtain the voltage-dependent optical signal. To allow temporal alignment and subsequent averaging of successive paced action potentials, the trigger for the pacing stimulus was recorded as a single pixel in the movie frames. […] Dye loading and washout dynamics were assessed from averaged sets of OP recordings (3-5 specimens). To facilitate comparison, fluorescence and OP signals were normalized to their peak values (defined as the difference between maximum and minimum values) in some figures.
For the dye loading dynamics, the time to reach peak values of background fluorescence (membrane voltage independent component of the dye molecules fluorescence), OP, and ΔF/F were determined by simple visual inspection of the dynamic plots. […]

[8] = Absorbance spectra in ethanol; type: physicochemical
Protocol: Absorbance spectra were measured in ethanol (panel A), and a model membrane made of multilamellar lipid vesicles (MLV) composed of egg phosphatidyl choline (panel B). The absorbance spectra reveal single maxima that represent a high level of the dye purity and absence of different configurational isomers. The absorption maxima for JPW6003 in ethanol occurred at 603 nm. For the dye JPW 6033 all absorption maxima are shifted 20-40 nm to shorter wavelengths, but absorbance is 2-3 times higher. Though the long wavelength absorbance peaks range from 561 nm to 603 nm in ethanol, and 526 nm to 539 nm in MLV, in practical applications both dyes can be efficiently excited over a much broader range (500-700 nm), allowing one to optimize excitation for the dye in different tissues, including blood perfused tissue.

[9] = Voltage-dependent fluorescence response in voltage-clamped hemispherical lipid bilayer (HLB) model membrane
Protocol: Voltage-dependent spectra in model membranes were measured by a voltage-clamped hemispherical lipid bilayer (HLB) apparatus modified for near infrared fluorescence detection. In this experiment, light from a tungsten lamp is sent through a monochromator and then focused onto the bottom of the HLB, stained with dye from the external aqueous bathing solution. The monochromator is then scanned over the wavelength range of interest while a train of ±50 mV voltage steps are applied to the membrane at a frequency of 40 Hz and the modulation of the detected light signal is measured with a lockin amplifier. The transmitted light signal is collected at 180° from the incident light. Fluorescence is collected at 90° via fiber optic light guide through cutoff filters at 715 nm.

absorption maxima (excitation wavelength) [8] [nm] | Molecule | ΔF/F (relative fluorescence, maximal fluorescence efficacy) [1] [%] | 50% washout time of OP amplitude (pig cardiac tissue) [h] | 50% washout time of OP amplitude [2] [h] | ΔF/F (relative fluorescence, maximal fluorescence efficacy) [3] | ΔF/F (relative fluorescence) [3] | 50% washout time of OP amplitude [4] [h] | 50% washout time of OP amplitude (rat heart cardiac tissue [5]) [h] | OP amplitude higher than that of di-4-ANEPPS (various cardiac tissues) | ΔF/F (relative fluorescence, maximal fluorescence efficacy) (rat heart cardiac tissue [6]) [%] | ΔF/F (relative fluorescence, maximal fluorescence efficacy) [7] [%] | time of slow increase in total fluorescence and OP (dye loading) (blood-perfused pig heart; dye injected during recirculated-blood-perfusion) [h] | ΔF/F (relative fluorescence) (blood-perfused pig heart; pig, Tyrode's-perfused loading) [%] | ΔF/F (relative fluorescence) (blood-perfused pig heart; pig, blood-perfused loading (dye injected into blood flow)) [%] | steady-state level of deltaF/F during blood perfusion (blood-perfused pig heart; pig, regardless of loading in Tyrode's or directly into blood flow) [%] | delta F/F (relative fluorescence) in a model membrane [9] [%]
 | Di-4-ANBDQBS [JPW6033] | 10 ± 1.5 | 2.50 ± 0.28 | 2.0 ± 0.2 | 15 ± 1.0% | 14 ± 1.1% | 1.0 ± 0.1 | 1.8 ± 0.2 | 50-100% | 14 ± 1.5 | 12.5 ± 1.4 |  |  |  |  | 
603 | CCCCN(CCCC)c1ccc2cc(/C=C/C=C/c3cc[n+](CCC[N+](C)(C)C)c4ccccc34)ccc2c1.[Br-].[Br-] [JPW6003, Di-4-ANBDQPQ] | 9.1 ± 1.4 | 3.33 ± 0.31 | 2.80 ± 0.31 | 18.7% and 18.7 ± 1.1% | approximately 20% | 1.4 ± 0.2 | 2.50 ± 0.28 |  | 11.1 ± 1.6 | 11.3 ± 1.0 | ~1 | 12 | 5.5 ± 1.5 | ~5 | 
 | CCCCN(CCCC)c1ccc2cc(/C=C/c3cc[n+](CCCS(=O)(=O)[O-])cc3)ccc2c1 [di-4-ANEPPS] |  |  |  |  |  |  |  |  |  |  |  |  |  |  | 9
